Assay results from ChEMBL document CHEMBL4251595, “Green approach for the synthesis of thiophenyl pyrazoles and isoxazoles by adopting 1,3-dipolar cycloaddition methodology and their antimicrobial activity” (2018).
Values after ≈ are worked out from the molar mass of the structure shown. Active and inactive are the calls of the source. The calls are words filed in the database; no cut-off is given here.

How the values were obtained:
Type in all cases: functional
Pseudomonas aeruginosa [1] = assay: Antimicrobial activity against Pseudomonas aeruginosa after 24 hrs by broth dilution test
Pseudomonas aeruginosa [2] = assay: Antimicrobial activity against Pseudomonas aeruginosa assessed as zone of inhibition at 50 ug/well after 24 hrs by agar well diffusion method; conditions: for zone of inhibition at 50 µg/disc: read-out: DIZ
Staphylococcus aureus [3] = assay: Antimicrobial activity against Staphylococcus aureus after 24 hrs by broth dilution test
Bacillus subtilis [4] = assay: Antimicrobial activity against Bacillus subtilis after 24 hrs by broth dilution test
Staphylococcus aureus [5] = assay: Antimicrobial activity against Staphylococcus aureus assessed as zone of inhibition at 75 ug/well after 24 hrs by agar well diffusion method; conditions: read-out: DIZ
Klebsiella pneumoniae [6] = assay: Antimicrobial activity against Klebsiella pneumoniae assessed as zone of inhibition at 50 ug/well after 24 hrs by agar well diffusion method; conditions: read-out: DIZ
Klebsiella pneumoniae [7] = assay: Antimicrobial activity against Klebsiella pneumoniae assessed as zone of inhibition at 75 ug/well after 24 hrs by agar well diffusion method; conditions: read-out: DIZ
Staphylococcus aureus [8] = assay: Antimicrobial activity against Staphylococcus aureus assessed as zone of inhibition at 100 ug/well after 24 hrs by agar well diffusion method; conditions: read-out: DIZ
Pseudomonas aeruginosa [9] = assay: Antimicrobial activity against Pseudomonas aeruginosa assessed as zone of inhibition at 75 ug/well after 24 hrs by agar well diffusion method; conditions: read-out: DIZ
Klebsiella pneumoniae [10] = assay: Antimicrobial activity against Klebsiella pneumoniae after 24 hrs by broth dilution test
Bacillus subtilis [11] = assay: Antimicrobial activity against Bacillus subtilis assessed as zone of inhibition at 100 ug/well after 24 hrs by agar well diffusion method; conditions: read-out: DIZ
Klebsiella pneumoniae [12] = assay: Antimicrobial activity against Klebsiella pneumoniae assessed as zone of inhibition at 100 ug/well after 24 hrs by agar well diffusion method; conditions: read-out: DIZ
Pseudomonas aeruginosa [13] = assay: Antimicrobial activity against Pseudomonas aeruginosa assessed as zone of inhibition at 100 ug/well after 24 hrs by agar well diffusion method; conditions: read-out: DIZ
Bacillus subtilis [14] = assay: Antimicrobial activity against Bacillus subtilis assessed as zone of inhibition at 50 ug/well after 24 hrs by agar well diffusion method; conditions: read-out: DIZ
Bacillus subtilis [15] = assay: Antimicrobial activity against Bacillus subtilis assessed as zone of inhibition at 75 ug/well after 24 hrs by agar well diffusion method; conditions: read-out: DIZ
Staphylococcus aureus [16] = assay: Antimicrobial activity against Staphylococcus aureus assessed as zone of inhibition at 50 ug/well after 24 hrs by agar well diffusion method; conditions: read-out: DIZ
Penicillium chrysogenum [17] = assay: Antifungal activity against Penicillium chrysogenum assessed as zone of inhibition at 100 ug/well after 48 hrs by agar well diffusion method; conditions: read-out: DIZ
Penicillium chrysogenum [18] = assay: Antifungal activity against Penicillium chrysogenum assessed as zone of inhibition at 75 ug/well after 48 hrs by agar well diffusion method; conditions: read-out: DIZ
Aspergillus niger [19] = assay: Fungicidal activity against Aspergillus niger incubated for 48 hrs followed by replating on PDA and incubated for 48 hrs by broth dilution test
Penicillium chrysogenum [20] = assay: Fungicidal activity against Penicillium chrysogenum incubated for 48 hrs followed by replating on PDA and incubated for 48 hrs by broth dilution test
Aspergillus niger [21] = assay: Antifungal activity against Aspergillus niger assessed as zone of inhibition at 75 ug/well after 48 hrs by agar well diffusion method; conditions: read-out: DIZ
Penicillium chrysogenum [22] = assay: Antifungal activity against Penicillium chrysogenum assessed as zone of inhibition at 50 ug/well after 48 hrs by agar well diffusion method; conditions: read-out: DIZ
Aspergillus niger [23] = assay: Antifungal activity against Aspergillus niger assessed as zone of inhibition at 50 ug/well after 48 hrs by agar well diffusion method; conditions: read-out: DIZ
Staphylococcus aureus [24] = assay: Bactericidal activity against Staphylococcus aureus incubated for 24 hrs followed by replating on sterile nutrient broth and incubated for 24 hrs by broth dilution test
Klebsiella pneumoniae [25] = assay: Bactericidal activity against Klebsiella pneumoniae incubated for 24 hrs followed by replating on sterile nutrient broth and incubated for 24 hrs by broth dilution test
Aspergillus niger [26] = assay: Antifungal activity against Aspergillus niger after 48 hrs by broth dilution test
Penicillium chrysogenum [27] = assay: Antifungal activity against Penicillium chrysogenum after 48 hrs by broth dilution test
Pseudomonas aeruginosa [28] = assay: Bactericidal activity against Pseudomonas aeruginosa incubated for 24 hrs followed by replating on sterile nutrient broth and incubated for 24 hrs by broth dilution test
Aspergillus niger [29] = assay: Antifungal activity against Aspergillus niger assessed as zone of inhibition at 100 ug/well after 48 hrs by agar well diffusion method; conditions: read-out: DIZ
Bacillus subtilis [30] = assay: Bactericidal activity against Bacillus subtilis incubated for 24 hrs followed by replating on sterile nutrient broth and incubated for 24 hrs by broth dilution test

Row | SMILES | MIC (Pseudomonas aeruginosa [1]) [µg/mL] | zone of inhibition at 50 µg/disc (Pseudomonas aeruginosa [2]) [mm] | MIC (Staphylococcus aureus [3]) [µg/mL] | zone of inhibition at 75 µg/disc (Staphylococcus aureus [5]) [mm] | zone of inhibition at 50 µg/disc (Klebsiella pneumoniae [6]) [mm] | zone of inhibition at 75 µg/disc (Klebsiella pneumoniae [7]) [mm] | zone of inhibition at 100 µg/disc (Staphylococcus aureus [8]) [mm] | zone of inhibition at 75 µg/disc (Pseudomonas aeruginosa [9]) [mm] | zone of inhibition at 100 µg/disc (Bacillus subtilis [11]) [mm] | zone of inhibition at 100 µg/disc (Klebsiella pneumoniae [12]) [mm] | zone of inhibition at 100 µg/disc (Pseudomonas aeruginosa [13]) [mm] | zone of inhibition at 50 µg/disc (Bacillus subtilis [14]) [mm] | zone of inhibition at 75 µg/disc (Bacillus subtilis [15]) [mm] | zone of inhibition at 50 µg/disc (Staphylococcus aureus [16]) [mm] | zone of inhibition at 100 µg/disc (Penicillium chrysogenum [17]) [mm] | zone of inhibition at 75 µg/disc (Penicillium chrysogenum [18]) [mm] | zone of inhibition at 75 µg/disc (Aspergillus niger [21]) [mm] | zone of inhibition at 50 µg/disc (Penicillium chrysogenum [22]) [mm] | zone of inhibition at 50 µg/disc (Aspergillus niger [23]) [mm] | zone of inhibition at 100 µg/disc (Aspergillus niger [29]) [mm] | also measured
1 | O=C(N[C@H](CO)[C@H](O)c1ccc([N+](=O)[O-])cc1)C(Cl)Cl [CHLORAMPHENICOL] | 6.25 (≈ 19.3 µM) | 25 | 12.5 (≈ 38.7 µM) | 33 | 38 | 40 | 35 | 27 | 38 | 42 | 30 | 32 | 34 | 30 | – | – | – | – | – | – | MIC (Bacillus subtilis [4]): 6.25 µg/mL (≈ 19.3 µM); MIC (Klebsiella pneumoniae [10]): 6.25 µg/mL (≈ 19.3 µM)
2 | O=C(NS(=O)(=O)c1c(-c2ccccc2)noc1-c1ccc([N+](=O)[O-])cc1)c1cccs1 | 12.5 (≈ 27.4 µM) | 21 | 50 (≈ 110 µM) | 28 | 31 | 34 | 30 | 23 | 42 | 36 | 26 | 34 | 38 | 25 | 30 | 28 | 35 | 25 | 33 | 38 | MFC (Aspergillus niger [19]): 12.5 µg/mL (≈ 27.4 µM); MFC (Penicillium chrysogenum [20]): 200 µg/mL (≈ 439 µM); MIC (Bacillus subtilis [4]): 6.25 µg/mL (≈ 13.7 µM); MBC (Staphylococcus aureus [24]): 200 µg/mL (≈ 439 µM); MIC (Klebsiella pneumoniae [10]): 25 µg/mL (≈ 54.9 µM); MBC (Klebsiella pneumoniae [25]): 100 µg/mL (≈ 220 µM); MIC (Aspergillus niger [26]): 6.25 µg/mL (≈ 13.7 µM); MIC (Penicillium chrysogenum [27]): 50 µg/mL (≈ 110 µM); MBC (Pseudomonas aeruginosa [28]): 50 µg/mL (≈ 110 µM); MBC (Bacillus subtilis [30]): 12.5 µg/mL (≈ 27.4 µM)
3 | O=C(NS(=O)(=O)/C=C/c1ccc([N+](=O)[O-])cc1)c1cccs1 | 25 (≈ 73.9 µM) | 16 | 100 (≈ 296 µM) | 22 | 26 | 30 | 25 | 19 | 36 | 31 | 21 | 30 | 32 | 19 | 27 | 24 | 25 | 22 | 23 | 28 | MFC (Aspergillus niger [19]): 100 µg/mL (≈ 296 µM); MFC (Penicillium chrysogenum [20]): > 200 µg/mL; MIC (Bacillus subtilis [4]): 12.5 µg/mL (≈ 36.9 µM); MBC (Staphylococcus aureus [24]): > 200 µg/mL; MIC (Klebsiella pneumoniae [10]): 50 µg/mL (≈ 148 µM); MBC (Klebsiella pneumoniae [25]): 200 µg/mL (≈ 591 µM); MIC (Aspergillus niger [26]): 25 µg/mL (≈ 73.9 µM); MIC (Penicillium chrysogenum [27]): 100 µg/mL (≈ 296 µM); MBC (Pseudomonas aeruginosa [28]): 100 µg/mL (≈ 296 µM); MBC (Bacillus subtilis [30]): 50 µg/mL (≈ 148 µM)
4 | O=C(NS(=O)(=O)c1c(-c2ccccc2)nn(-c2ccccc2)c1-c1ccc([N+](=O)[O-])cc1)c1cccs1 | 25 (≈ 47.1 µM) | 20 | 50 (≈ 94.2 µM) | 26 | 29 | 32 | 27 | 21 | 40 | 34 | 24 | 33 | 36 | 23 | 27 | 24 | 28 | 22 | 25 | 31 | MFC (Aspergillus niger [19]): 100 µg/mL (≈ 188 µM); MFC (Penicillium chrysogenum [20]): > 200 µg/mL; MIC (Bacillus subtilis [4]): 6.25 µg/mL (≈ 11.8 µM); MBC (Staphylococcus aureus [24]): 200 µg/mL (≈ 377 µM); MIC (Klebsiella pneumoniae [10]): 25 µg/mL (≈ 47.1 µM); MBC (Klebsiella pneumoniae [25]): 100 µg/mL (≈ 188 µM); MIC (Aspergillus niger [26]): 25 µg/mL (≈ 47.1 µM); MIC (Penicillium chrysogenum [27]): 100 µg/mL (≈ 188 µM); MBC (Pseudomonas aeruginosa [28]): 100 µg/mL (≈ 188 µM); MBC (Bacillus subtilis [30]): 12.5 µg/mL (≈ 23.6 µM)
5 | CC(=O)N1CCN(c2ccc(OCC3COC(Cn4ccnc4)(c4ccc(Cl)cc4Cl)O3)cc2)CC1 (stereo not given) [KETOCONAZOLE] | – | – | – | – | – | – | – | – | – | – | – | – | – | – | 38 | 36 | 33 | 35 | 31 | 36 | MIC (Aspergillus niger [26]): 6.25 µg/mL (≈ 11.8 µM); MIC (Penicillium chrysogenum [27]): 12.5 µg/mL (≈ 23.5 µM)
6 | O=C(NS(=O)(=O)c1c(-c2ccccc2)nn(-c2ccccc2)c1-c1ccc([N+](=O)[O-])cc1)c1ccc(Cl)s1 | 12.5 (≈ 22.1 µM) | 22 | 50 (≈ 88.5 µM) | 28 | 30 | 33 | 29 | 23 | 41 | 37 | 26 | 35 | 38 | 24 | 29 | 25 | 31 | 24 | 29 | 34 | MFC (Aspergillus niger [19]): 50 µg/mL (≈ 88.5 µM); MFC (Penicillium chrysogenum [20]): 200 µg/mL (≈ 354 µM); MIC (Bacillus subtilis [4]): 6.25 µg/mL (≈ 11.1 µM); MBC (Staphylococcus aureus [24]): 200 µg/mL (≈ 354 µM); MIC (Klebsiella pneumoniae [10]): 25 µg/mL (≈ 44.2 µM); MBC (Klebsiella pneumoniae [25]): 100 µg/mL (≈ 177 µM); MIC (Aspergillus niger [26]): 12.5 µg/mL (≈ 22.1 µM); MIC (Penicillium chrysogenum [27]): 50 µg/mL (≈ 88.5 µM); MBC (Pseudomonas aeruginosa [28]): 50 µg/mL (≈ 88.5 µM); MBC (Bacillus subtilis [30]): 12.5 µg/mL (≈ 22.1 µM)
7 | O=C(NS(=O)(=O)c1c(-c2ccccc2)noc1-c1ccc([N+](=O)[O-])cc1)c1ccc(Cl)s1 | 12.5 (≈ 25.5 µM) | 23 | 50 (≈ 102 µM) | 30 | 32 | 35 | 32 | 25 | 44 | 38 | 28 | 37 | 39 | 27 | 33 | 29 | 37 | 27 | 35 | 40 | MFC (Aspergillus niger [19]): 12.5 µg/mL (≈ 25.5 µM); MFC (Penicillium chrysogenum [20]): 200 µg/mL (≈ 408 µM); MIC (Bacillus subtilis [4]): 6.25 µg/mL (≈ 12.8 µM); MBC (Staphylococcus aureus [24]): 200 µg/mL (≈ 408 µM); MIC (Klebsiella pneumoniae [10]): 25 µg/mL (≈ 51 µM); MBC (Klebsiella pneumoniae [25]): 100 µg/mL (≈ 204 µM); MIC (Aspergillus niger [26]): 6.25 µg/mL (≈ 12.8 µM); MIC (Penicillium chrysogenum [27]): 50 µg/mL (≈ 102 µM); MBC (Pseudomonas aeruginosa [28]): 50 µg/mL (≈ 102 µM); MBC (Bacillus subtilis [30]): 12.5 µg/mL (≈ 25.5 µM)
8 | O=C(NS(=O)(=O)c1c(-c2ccccc2)noc1-c1ccccc1)c1ccc(Cl)s1 | – | 17 | – | 26 | 26 | 29 | 28 | 19 | 35 | 32 | 21 | 30 | 32 | 23 | 22 | 19 | 24 | 17 | 21 | 28 | –
9 | Cc1ccc(-c2onc(-c3ccccc3)c2S(=O)(=O)NC(=O)c2cccs2)cc1 | – | – | – | 14 | 16 | 20 | 16 | 9 | 23 | 21 | 12 | 18 | 20 | 12 | 16 | 12 | 15 | 10 | 13 | 18 | diameter of the inhibition zone (DIZ) (Pseudomonas aeruginosa [2]): inactive
